In patent US20160016929A1, “PRO-DRUG COMPOUNDS” (PROXIMAGEN LIMITED, priority 2013, published 2016):
Read-outs that look alike come from different tables or passages of the source.

How the values were obtained:
[1] = target: T1, human ether a go-go related gene (hERG) K+ channel (Homo sapiens, UniProt Q12809); experiment: hERG assay, IonWorks patch clamp electrophysiology; type: cell-based; settings: Chinese Hamster Lung cell line stably expressing hERG; IonWorks Quattro
T1 construct: a Chinese Hamster Lung cell line stably expressing the full length hERG channel; expressed in transfected cells; host or cells: Chinese Hamster Lung cell line
Description: (§1) Compounds of the invention were tested for inhibition of the human ether a go-go related gene (hERG) K^+ channel using IonWorks patch clamp electrophysiology. 8 Point concentration-response curves were generated on two occasions using 3-fold serial dilutions from the maximum assay concentration (33 uM). Electrophysiological recordings were made from a Chinese Hamster Lung cell line stably expressing the full length hERG channel. Single cell ion currents were measured in the perforated patch clamp configuration (100 ug/mL amphoterocin) at room temperature using an IonWorks Quattro instrument. The internal solution contained 140 mM KCl, 1 mM MgCl2, 1 mM EGTA and 20 mM HEPES and was buffered to pH 7.3. The external solution contained 138 mM NaCl, 2.7 mM KCl, 0.9 mM CaCl2, 0.5 mM MgCl2, 8 mM Na2HPO4 and 1.5 mM KH2PO4, and was buffered to pH 7.3. Cells were clamped at a holding potential of […] for 30 s and then stepped to +40 mV for 1 s. This was followed by a hyperpolarising step of 1 s to […] to evoke the hERG tail current. This sequence was repeated 5 times at a frequency of 0.25 Hz. Currents were measured from the tail step at the 5th pulse, and referenced to the holding current. Compounds were incubated for 6-7 min prior to a second measurement of the hERG signal using an identical pulse train. A minimum of 17 cells were required for each pIC50 curve fit. A control compound (quinidine) was used.

hERG K+ channel = target: T2, hERG K+ channel (Homo sapiens, UniProt Q12809); experiment: hERG assay, IonWorks patch clamp electrophysiology; type: cell-based; settings: human, pH 7.3; 11 uM; Chinese Hamster Lung cell line stably expressing hERG
T2 construct: a Chinese Hamster Lung cell line stably expressing the full length hERG channel; expressed in transfected cells; host or cells: Chinese Hamster Lung cell line
Description: as §1

[2] = Solubility in aqueous solutions (Table 3); type: physicochemical; settings: aqueous solution
Description: The skilled person understands that the pH of the gastrointestinal tract changes along its length. […] For more detail see, for example, Measurement of gastrointestinal pH profiles in normal ambulant human subjects, Gut. […] Improved solubility is expected to result in improved absorption, and therefore improved oral bioavailability.
In an embodiment prodrugs of the invention are administered intravenously. High prodrug solubility is advantageous in order to reduce the volume of solution administered to the patient, and to reduce the risk of damage to the circulatory system. Solubility of >10 mg/mL is preferred.

[3] = Pharmacokinetics: exposure of tonabersat in plasma after oral or intravenous dosing of prodrugs to rats; type: in vivo; settings: fasted male Sprague Dawley rats; for % exposure of tonabersat after dosing the prodrugs of the invention via: Intravenous dosing (iv): compared to equimolar amount of tonabersat (0.78 mg/kg intravenous dosing); for % exposure of tonabersat after dosing the prodrugs of the invention via: Oral dosing (po): compared to equimolar amount of tonabersat (5.00 mg/kg oral dosing)
Description: Example Prodrugs of the claimed invention were dosed either intravenously or orally to fasted male Sprague Dawley rats. The rats underwent surgery for jugular vein cannulation 48 h prior to dosing. Following dosing, 0.25 mL blood samples were taken via the cannulae at 0, 5, 10, 20, 30, 45, 60, 120, 240 & 360 min in EDTA coated tubes. Tubes were spun at 13,000 rpm for 4 min and 100 ul of supernatant taken immediately and stored at −80° C. prior to analysis. Plasma samples were analysed by LC-MS/MS following extraction by protein precipitation, and levels of parent prodrug and tonabersat were measured by MRM (Multiple Reaction Monitoring) analysis against an extracted calibration curve of plasma samples spiked with the Example prodrug and tonabersat.
The exposure of tonabersat in plasma following dosing of the prodrugs of the invention was compared directly to the exposure observed following dosing of an equimolar amount of tonabersat under analogous assay conditions (5.00 mg/kg oral dosing or 0.78 mg/kg intravenous dosing). In an embodiment prodrugs of the present invention have >10% exposure of tonabersat obtained following either oral or intravenous dosing of the prodrug to a human or animal subject, compared to the exposure obtained from dosing an equimolar amount of tonabersat itself. In an embodiment the exposure of tonabersat following dosing of the prodrugs is >20%, or >30%, or >40%, or >50%, or preferably >70% compared to the exposure obtained from dosing an equimolar amount of tonabersat itself.

[4] = tested on: unique stereo-selective site in rat and human brains; settings: cited from earlier work
[5] = tested on: unique stereo-selective site in rat and human brains; settings: cited from earlier work; remark: listed apart in the source
high K+ evoked CSD [6] = settings: cats; cited from earlier work
high K+ evoked CSD [7] = settings: rats; cited from earlier work

T1 sequence (Q12809 whole entry): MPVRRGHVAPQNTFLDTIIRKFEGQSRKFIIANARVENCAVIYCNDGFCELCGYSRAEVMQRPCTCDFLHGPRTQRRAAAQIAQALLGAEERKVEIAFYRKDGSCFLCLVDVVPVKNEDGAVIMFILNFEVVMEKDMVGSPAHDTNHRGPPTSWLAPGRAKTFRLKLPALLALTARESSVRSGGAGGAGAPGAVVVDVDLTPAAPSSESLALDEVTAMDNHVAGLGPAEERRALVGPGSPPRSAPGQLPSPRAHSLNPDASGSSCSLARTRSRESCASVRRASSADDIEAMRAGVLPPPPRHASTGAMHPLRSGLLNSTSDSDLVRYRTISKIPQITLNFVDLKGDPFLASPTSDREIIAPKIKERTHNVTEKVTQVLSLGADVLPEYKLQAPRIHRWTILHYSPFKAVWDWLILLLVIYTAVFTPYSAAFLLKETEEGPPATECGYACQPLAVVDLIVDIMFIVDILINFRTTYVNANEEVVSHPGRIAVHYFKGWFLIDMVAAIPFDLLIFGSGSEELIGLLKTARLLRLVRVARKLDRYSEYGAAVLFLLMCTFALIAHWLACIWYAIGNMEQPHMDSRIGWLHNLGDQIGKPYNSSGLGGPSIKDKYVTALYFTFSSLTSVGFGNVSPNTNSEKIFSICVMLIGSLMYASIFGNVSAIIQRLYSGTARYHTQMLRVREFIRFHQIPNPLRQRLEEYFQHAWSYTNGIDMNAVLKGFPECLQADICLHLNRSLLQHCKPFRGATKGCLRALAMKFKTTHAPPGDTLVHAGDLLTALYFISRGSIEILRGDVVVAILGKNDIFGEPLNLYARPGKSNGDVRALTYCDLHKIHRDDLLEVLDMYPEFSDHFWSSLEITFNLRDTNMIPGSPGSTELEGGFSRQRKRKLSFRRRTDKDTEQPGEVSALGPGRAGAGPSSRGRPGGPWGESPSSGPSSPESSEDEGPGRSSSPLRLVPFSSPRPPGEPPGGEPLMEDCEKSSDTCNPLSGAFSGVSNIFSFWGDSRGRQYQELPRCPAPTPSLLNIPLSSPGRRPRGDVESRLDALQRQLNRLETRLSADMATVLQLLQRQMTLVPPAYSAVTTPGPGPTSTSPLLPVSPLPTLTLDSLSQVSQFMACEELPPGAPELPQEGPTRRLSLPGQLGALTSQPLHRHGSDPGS
T2 sequence (Q12809 whole entry): as above

Question: With CC(=O)c1ccc2c(c1)[C@H](NC(=O)c1ccc(F)c(Cl)c1)[C@H](OC(=O)OCCN(C)C)C(C)(C)O2 [Example 1, (3S,4S)-6-Acetyl-4-[(3-chloro-4-fluorobenzene)amido]-2,2-dimethyl-3,4-dihydro-2H-1-benzopyran-3-yl 2-(dimethylamino)ethyl carbonate] as the molecule, how does the IC50 [1] read?
Answer: > 20 µM

Question: What about the inhibition at 11 µM (hERG K+ channel) of the same molecule?
Answer: 25%

Question: What about the solubility ([2]; aqueous buffer, pH not given) of the same molecule?
Answer: < 1000 µg/mL

Question: With CC(=O)c1ccc2c(c1)[C@H](NC(=O)c1ccc(F)c(Cl)c1)[C@H](OC(=O)N[C@H](C(=O)O)C(C)C)C(C)(C)O2 [Example 8, (2S)-2-[({[(3S,4S)-6-Acetyl-4-[(3-chloro-4-fluorobenzene)amido]-2,2-dimethyl-3,4-dihydro-2H-1-benzopyran-3-yl]oxy}carbonyl)amino]-3-methylbutanoic acid] as the molecule, how does the solubility ([2]; aqueous buffer, pH not given) read?
Answer: < 1000 µg/mL

Question: And the “% exposure of tonabersat after dosing the prodrugs of the invention via: Intravenous dosing (iv)” value (from here on “% exposure of tonabersat … (iv)”) [3]?
Answer: <LLOQ

Question: And the “% exposure of tonabersat after dosing the prodrugs of the invention via: Oral dosing (po)” value (“% exposure of tonabersat … (po)” below) [3]?
Answer: <LLOQ

Question: With CC(=O)c1ccc2c(c1)[C@H](NC(=O)c1ccc(F)c(Cl)c1)[C@H](O)C(C)(C)O2 [Tonabersat, N-[(3S,4S)-6-Acetyl-3-hydroxy-2,2-dimethyl-3,4-dihydro-2H-1-benzopyran-4-yl]-3-chloro-4-fluorobenzamide] as the molecule, how does the “binding affinity to brain site” value [4] read?
Answer: high affinity

Question: And the “binding affinity to brain site” value [5]?
Answer: high affinity

Question: And the “inhibition of high K+ evoked CSD” value (high K+ evoked CSD [6])?
Answer: inhibits

Question: What about the “inhibition of high K+ evoked CSD” value (high K+ evoked CSD [7]) of the same molecule?
Answer: inhibits

Question: With CC(=O)c1ccc2c(c1)[C@H](NC(=O)c1ccc(F)c(Cl)c1)[C@H](OC(=O)OCCN1CCOCC1)C(C)(C)O2 [Example 4, (3S,4S)-6-Acetyl-4-[(3-chloro-4-fluorobenzene)amido]-2,2-dimethyl-3,4-dihydro-2H-1-benzopyran-3-yl 2-(morpholin-4-yl)ethyl carbonate] as the molecule, how does the IC50 [1] read?
Answer: 9.8 µM

Question: And the solubility ([2]; aqueous buffer, pH not given)?
Answer: < 1000 µg/mL

Question: With CC(=O)c1ccc2c(c1)[C@H](NC(=O)c1ccc(F)c(Cl)c1)[C@H](OC(=O)OC[C@H](N)C(=O)O)C(C)(C)O2.Cl [Example 5, (2S)-3-[({[(3S,4S)-6-Acetyl-4-[(3-chloro-4-fluorobenzene)amido]-2,2-dimethyl-3,4-dihydro-2H-1-benzopyran-3-yl]oxy}carbonyl)oxy]-2-aminopropanoic acid hydrochloride] as the molecule, how does the “% exposure of tonabersat … (iv)” value [3] read?
Answer: 37%

Question: What about the “% exposure of tonabersat … (po)” value [3] of the same molecule?
Answer: 39%

Question: For CC(=O)c1ccc2c(c1)[C@H](NC(=O)c1ccc(F)c(Cl)c1)[C@H](OC(=O)N[C@@H](CCCCN)C(=O)O)C(C)(C)O2.Cl [Example 9, (2S)-2-[({[(3S,4S)-6-acetyl-4-[(3-chloro-4-fluorobenzene)amido]-2,2-dimethyl-3,4-dihydro-2H-1-benzopyran-3-yl]oxy}carbonyl)amino]-6-aminohexanoic acid hydrochloride], which inhibition at 11 µM (hERG K+ channel) is on record?
Answer: 8%

Question: What about the solubility ([2]; pH 4.9, aqueous buffer) of the same molecule?
Answer: 10000 µg/mL

Question: And the “% exposure of tonabersat … (iv)” value [3]?
Answer: <LLOQ

Question: And the “% exposure of tonabersat … (po)” value [3]?
Answer: <LLOQ

Question: For CC(=O)c1ccc2c(c1)[C@H](NC(=O)c1ccc(F)c(Cl)c1)[C@H](OC(=O)OCCN1CCCCC1)C(C)(C)O2 [Example 30, (3S,4S)-6-Acetyl-4-[(3-chloro-4-fluorobenzene)amido]-2,2-dimethyl-3,4-dihydro-2H-1-benzopyran-3-yl 2-(piperidin-1-yl)ethyl carbonate], which IC50 [1] is on record?
Answer: 7 µM

Question: With CC(=O)c1ccc2c(c1)[C@H](NC(=O)c1ccc(F)c(Cl)c1)[C@H](OC(=O)N1CCC(N3CCCCC3)CC1)C(C)(C)O2.Cl [Example 18, (3S,4S)-6-Acetyl-4-[(3-chloro-4-fluorobenzene)amido]-2,2-dimethyl-3,4-dihydro-2H-1-benzopyran-3-yl 4-(piperidin-1-yl)piperidine-1-carboxylate hydrochloride] as the molecule, how does the inhibition at 11 µM (hERG K+ channel) read?
Answer: 28%

Question: What about the solubility ([2]; pH 6.3, aqueous buffer) of the same molecule?
Answer: > 10000 µg/mL

Question: What about the “% exposure of tonabersat … (iv)” value [3] of the same molecule?
Answer: <LLOQ

Question: And the “% exposure of tonabersat … (po)” value [3]?
Answer: <LLOQ
